From patent publication US20180244611A1, “Modulators of the Cystic Fibrosis Transmembrane Conductance Regulator Protein and Methods of Use” (AbbVie S.à.r.l., priority 2017, published 2018) come the findings set out here.

The target in experiment [1] is T1, F508delCFTR (Homo sapiens, UniProt P13569, DEL508-508).
T1 construct: expressed in transfected cells; host or cells: CFBE41o- human lung-derived epithelial cells (CFBE41o-F508delCFTR-HRP), doxycycline-inducible
Briefly: Cell Surface Expression-Horse Radish Peroxidase (CSE-HRP) assay, test compound without co-corrector.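 On Emax: percent of on-plate 2 µM positive control corrector response over DMSO.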 In kind it is cell-based. The settings on record: for Emax: maximum at any tested concentration, normalized to positive control, without co-corrector; for EC50: test compound without co-corrector. Summed up: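 CFBE41o- cells expressing F508delCFTR with HRP in the fourth exofacial loop, induced with 0.5 μg/mL doxycycline for 72 h at 37° C, then exposed to compound alone for 18-24 h at 33° C, 8-point 3-fold series from 20 μM. Surface HRP read by luminol luminescence, normalized to positive corrector control versus DMSO; EC50 from variable-slope sigmoidal fit of three replicate plates.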

In experiment [2] the target is T1, F508delCFTR. Kind of experiment: Cell Surface Expression-Horse Radish Peroxidase (CSE-HRP) assay, test compound with co-corrector.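 On Maximum % activity (with co-corrector): percent of 2 µM positive control corrector over DMSO; co-corrector is that same compound.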 The settings on record: with 2 μM co-corrector; for Maximum % activity (with co-corrector): maximum at any tested concentration, normalized to positive control. In kind it is cell-based. Summed up:
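CFBE41o- cells expressing F508delCFTR with HRP in the fourth exofacial loop, induced with 0.5 μg/mL doxycycline for 72 h, then treated 18-24 h at 33° C. with compound (8 points, top 20 μM, 3-fold) plus 2 μM co-corrector. Surface HRP read by luminol luminescence; activity normalised to positive control, EC50 from variable-slope sigmoidal fit.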

Where only a bound is given, the exact number is not on record here.

T1 sequence (P13569 with tags, fused parts or gaps DEL508-508): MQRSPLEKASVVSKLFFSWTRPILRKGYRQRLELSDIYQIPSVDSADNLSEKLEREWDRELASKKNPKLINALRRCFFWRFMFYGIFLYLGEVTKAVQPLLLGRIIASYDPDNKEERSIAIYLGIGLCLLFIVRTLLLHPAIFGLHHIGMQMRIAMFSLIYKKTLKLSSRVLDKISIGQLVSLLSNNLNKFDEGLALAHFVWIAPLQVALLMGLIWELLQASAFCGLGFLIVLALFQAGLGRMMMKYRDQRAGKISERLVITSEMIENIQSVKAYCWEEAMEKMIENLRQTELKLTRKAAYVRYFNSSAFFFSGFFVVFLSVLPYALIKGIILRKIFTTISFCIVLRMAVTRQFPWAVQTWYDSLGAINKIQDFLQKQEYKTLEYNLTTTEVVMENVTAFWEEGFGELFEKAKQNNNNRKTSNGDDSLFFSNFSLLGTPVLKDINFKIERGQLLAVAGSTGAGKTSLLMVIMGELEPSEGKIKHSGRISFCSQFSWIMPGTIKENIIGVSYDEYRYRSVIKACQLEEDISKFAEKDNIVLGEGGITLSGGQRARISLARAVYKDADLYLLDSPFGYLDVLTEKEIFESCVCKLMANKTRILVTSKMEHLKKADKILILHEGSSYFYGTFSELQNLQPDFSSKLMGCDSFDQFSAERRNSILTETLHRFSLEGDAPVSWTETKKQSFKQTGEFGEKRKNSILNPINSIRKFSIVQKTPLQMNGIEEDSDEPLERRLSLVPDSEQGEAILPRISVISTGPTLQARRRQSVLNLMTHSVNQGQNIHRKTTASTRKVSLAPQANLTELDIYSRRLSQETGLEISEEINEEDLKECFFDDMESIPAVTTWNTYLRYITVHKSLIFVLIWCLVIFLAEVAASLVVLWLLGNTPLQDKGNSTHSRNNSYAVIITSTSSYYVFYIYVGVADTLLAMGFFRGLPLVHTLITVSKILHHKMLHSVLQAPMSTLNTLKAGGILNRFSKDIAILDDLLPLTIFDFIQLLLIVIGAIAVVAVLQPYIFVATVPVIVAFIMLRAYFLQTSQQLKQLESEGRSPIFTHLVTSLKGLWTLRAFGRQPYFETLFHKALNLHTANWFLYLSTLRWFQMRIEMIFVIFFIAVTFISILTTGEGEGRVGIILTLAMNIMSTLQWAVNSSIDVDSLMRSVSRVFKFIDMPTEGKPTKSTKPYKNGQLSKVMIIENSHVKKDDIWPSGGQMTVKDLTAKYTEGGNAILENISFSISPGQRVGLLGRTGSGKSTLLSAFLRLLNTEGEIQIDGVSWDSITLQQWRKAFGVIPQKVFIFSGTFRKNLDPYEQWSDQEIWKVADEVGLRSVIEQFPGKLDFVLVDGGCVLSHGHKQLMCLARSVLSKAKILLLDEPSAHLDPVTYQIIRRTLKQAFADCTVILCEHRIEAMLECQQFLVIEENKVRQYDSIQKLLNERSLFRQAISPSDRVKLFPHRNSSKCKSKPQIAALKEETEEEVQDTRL

In general, Emax refers to the greatest response seen or fitted, relative to the assay's reference. As a reminder, the EC50 is the concentration giving half of the maximal effect. In experiment [1], `CCC1(C(=O)NS(=O)(=O)c2cc(C)ccc2C)CCc2c(Cl)cccc21` (stereo not shown) [II-62] showed a maximal effect (Emax) of less than 50% and an EC50 not below 10 µM. In experiment [2], the “Maximum % activity (with co-corrector)” value is given as “+ (<150)” and the EC50 was not below 10 µM.
In experiment [1], `CCC1(C(=O)NS(=O)(=O)c2ccccc2OCCOC)CCc2c(Cl)cccc21` (stereo not shown) [II-63] came in with an Emax of less than 50% and an EC50 of less than 3 µM. Moreover, in experiment [2], the “Maximum % activity (with co-corrector)” value is “++ (≥150 and <350)”; the EC50 was less than 3 µM.
In experiment [1], `CCC1(C(=O)NS(=O)(=O)c2ccccc2-c2ccccc2)CCc2c(Cl)cccc21` (stereo not shown) [II-64] showed a maximal response (Emax) of less than 50% and an EC50 of less than 3 µM. Besides, in experiment [2], the “Maximum % activity (with co-corrector)” value was “++ (≥150 and <350)”; the half-maximal effective concentration (EC50) was less than 3 µM.
As to `CCC1(C(=O)NS(=O)(=O)c2ccc3ccccc3c2)CCc2c(Cl)cccc21` (stereo not shown) [II-65], in experiment [1], the Emax was less than 50% and the EC50 is 3 to 10 µM. For the same compound, in experiment [2], the “Maximum % activity (with co-corrector)” value is “++ (≥150 and <350)”; the EC50 lay in the range of 3 to 10 µM.
In experiment [1], `CCC1(C(=O)NS(=O)(=O)c2ccccc2)CCc2c(Cl)cccc21` (stereo not shown) [II-66] returned a maximal effect (Emax) of 50 to 150% and a half-maximal effective concentration (EC50) of less than 3 µM. Further, in experiment [2], the “Maximum % activity (with co-corrector)” value is “++ (≥150 and <350)”; the EC50 was less than 3 µM.
Regarding `CCC1(C(=O)NS(=O)(=O)c2cccc3nsnc23)CCc2c(Cl)cccc21` (stereo not shown) [II-67], in experiment [1], the Emax was less than 50% and the EC50 is not below 10 µM. For the same compound, in experiment [2], the “Maximum % activity (with co-corrector)” value is given as “+ (<150)” and the EC50 was not below 10 µM.
In experiment [1], `O=C(NS(=O)(=O)c1cccc2ccccc12)C1CCc2ccccc21` (stereo not shown) [II-68] came in with an Emax of less than 50% and an EC50 of 3 to 10 µM. Also, in experiment [2], the “Maximum % activity (with co-corrector)” value is “++ (≥150 and <350)”; the half-maximal effective concentration (EC50) is less than 3 µM.
As to `O=C(NS(=O)(=O)c1cccc2ccccc12)C1(CC2CCOC2)CCc2c(Cl)cccc21` (stereo not shown) [II-69], in experiment [1], the maximal effect (Emax) lay in the range of 50 to 150% and the EC50 is less than 3 µM. Besides, in experiment [2], the “Maximum % activity (with co-corrector)” value is “+++ (≥350)” and the EC50 is less than 3 µM.
`O=C(NS(=O)(=O)c1cccc2ccccc12)C1(CCn2cccn2)CCc2c(Cl)cccc21` (stereo not shown) [II-70]: in experiment [1], the Emax lay in the range of 50 to 150% and the EC50 was less than 3 µM. In addition, in experiment [2], the “Maximum % activity (with co-corrector)” value was “++ (≥150 and <350)”; the EC50 was less than 3 µM.
In experiment [1], `COc1cc(CC2(C(=O)NS(=O)(=O)c3cccc4ccccc34)CCc3c(Cl)cccc32)ccn1` (stereo not shown) [II-72] had an Emax of 50 to 150% and an EC50 of less than 3 µM. Also, in experiment [2], the “Maximum % activity (with co-corrector)” value was “++ (≥150 and <350)”; the concentration for a half-maximal effect (EC50) was less than 3 µM.
Consider `CCC1(C(=O)NS(=O)(=O)c2cccc3c2OCCO3)CCc2c(Cl)cccc21` (stereo not shown) [II-74], for which, in experiment [1], the Emax was less than 50% and the concentration giving a half-maximal response (EC50) is not below 10 µM. In experiment [2], the “Maximum % activity (with co-corrector)” value was “+ (<150)” and the concentration for a half-maximal effect (EC50) was not below 10 µM.
In experiment [1], `O=C(NS(=O)(=O)c1cccc2ccccc12)C1CCc2c(Br)cccc21` (stereo not shown) [II-75] showed an Emax not below 150% and an EC50 of 3 to 10 µM. Moreover, in experiment [2], the “Maximum % activity (with co-corrector)” value was “+++ (≥350)” and the EC50 was less than 3 µM.
With `CCC1(C(=O)NS(=O)(=O)c2ccc(Br)c3ccccc23)CCc2c(Cl)cccc21` (stereo not shown) [II-76], in experiment [1], the Emax is less than 50% and the half-maximal effective concentration (EC50) was less than 3 µM. In experiment [2], the “Maximum % activity (with co-corrector)” value was “++ (≥150 and <350)”; the EC50 was less than 3 µM.
Regarding `CCC1(C(=O)NS(=O)(=O)c2ccc(F)c3ccccc23)CCc2c(Cl)cccc21` (stereo not shown) [II-77], in experiment [1], the Emax is less than 50% and the EC50 was less than 3 µM. In experiment [2], the “Maximum % activity (with co-corrector)” value is “++ (≥150 and <350)”; the EC50 is less than 3 µM.
Regarding `CCC1(C(=O)NS(=O)(=O)c2cccc3c(Br)cccc23)CCc2c(Cl)cccc21` (stereo not shown) [II-78], in experiment [1], the Emax fell in the range of 50 to 150% and the EC50 was less than 3 µM. Besides, in experiment [2], the “Maximum % activity (with co-corrector)” value is recorded as “+++ (≥350)” and the EC50 is less than 3 µM.
On to `CCC1(C(=O)NS(=O)(=O)c2cccc3c2CCCC3)CCc2c(Cl)cccc21` (stereo not shown) [II-79], for which, in experiment [1], the maximal effect (Emax) is 50 to 150% and the EC50 was less than 3 µM. In experiment [2], the “Maximum % activity (with co-corrector)” value is “++ (≥150 and <350)”; the EC50 is less than 3 µM.
For the compound `CCC1(C(=O)NS(=O)(=O)c2ccc(C3CCC3)c3ccccc23)CCc2c(C3CCC3)cccc21` (stereo not shown) [II-82], in experiment [1], the Emax is less than 50% and the EC50 is not below 10 µM. Also, in experiment [2], the “Maximum % activity (with co-corrector)” value is “++ (≥150 and <350)”; the EC50 lay within 3 to 10 µM.
Regarding `CCC1(C(=O)NS(=O)(=O)c2cccc3c(C4CCC4)cccc23)CCc2c(C3CCC3)cccc21` (stereo not shown) [II-83], in experiment [1], the Emax was in the range of 50 to 150% and the EC50 fell in the range of 3 to 10 µM. Further, in experiment [2], the “Maximum % activity (with co-corrector)” value was “++ (≥150 and <350)”; the EC50 is 3 to 10 µM.
In experiment [1], `O=C(NS(=O)(=O)c1cccc2ccccc12)C1CCCc2c(OCC3CCCCC3)ccc(Br)c21` (stereo not shown) [II-84] displayed an Emax of 50 to 150% and an EC50 of 3 to 10 µM. Besides, in experiment [2], the “Maximum % activity (with co-corrector)” value was “++ (≥150 and <350)”; the EC50 lay in the range of 3 to 10 µM.
As for `COc1cccc(COc2ccc(Br)c3c2CCCC3C(=O)NS(=O)(=O)c2cccc3ccccc23)c1` (stereo not shown) [II-85], in experiment [1], the Emax was less than 50% and the EC50 is 3 to 10 µM. Moreover, in experiment [2], the “Maximum % activity (with co-corrector)” value was “++ (≥150 and <350)”; the EC50 was in the range of 3 to 10 µM.
In experiment [1], `COc1cccc(COc2ccc(Br)c3c2CCCC3C(=O)N(Cc2cccc(OC)c2)S(=O)(=O)c2cccc3ccccc23)c1` (stereo not shown) [II-86] displayed an Emax of less than 50% and an EC50 not below 10 µM. Moreover, in experiment [2], the “Maximum % activity (with co-corrector)” value was “++ (≥150 and <350)”; the concentration for a half-maximal effect (EC50) was in the range of 3 to 10 µM.
In experiment [1], `CCOC(=O)COc1ccc(Br)c2c1CCCC2C(=O)NS(=O)(=O)c1cccc2ccccc12` (stereo not shown) [II-87] had an Emax of less than 50% and an EC50 of less than 3 µM. Moreover, in experiment [2], the “Maximum % activity (with co-corrector)” value is “++ (≥150 and <350)”; the EC50 is less than 3 µM.
`O=C(NS(=O)(=O)c1cccc2ccccc12)C1CCCc2c(OC3CCCC3)ccc(Br)c21` (stereo not shown) [II-88]: in experiment [1], the Emax was in the range of 50 to 150% and the EC50 was 3 to 10 µM. Moreover, in experiment [2], the “Maximum % activity (with co-corrector)” value was “+++ (≥350)” and the EC50 was less than 3 µM.
In experiment [1], `O=C(NS(=O)(=O)c1cccc2ccccc12)C1CCCc2c(OCc3ccccc3)ccc(Br)c21` (stereo not shown) [II-89] returned an Emax of 50 to 150% and an EC50 of 3 to 10 µM. Further, in experiment [2], the “Maximum % activity (with co-corrector)” value is “++ (≥150 and <350)”; the EC50 is 3 to 10 µM.
Regarding `O=C(C1CCCc2c(OCc3ccccc3)ccc(Br)c21)N(Cc1ccccc1)S(=O)(=O)c1cccc2ccccc12` (stereo not shown) [II-90], in experiment [1], the maximum response (Emax) is less than 50% and the EC50 was not below 10 µM. Also, in experiment [2], the “Maximum % activity (with co-corrector)” value is “+ (<150)” and the EC50 was not below 10 µM.
In experiment [1], `O=C(NS(=O)(=O)c1cccc2ccccc12)C1CCCc2c(OC3COC3)ccc(Br)c21` (stereo not shown) [II-91] had an Emax of 50 to 150% and an EC50 of 3 to 10 µM. Further, in experiment [2], the “Maximum % activity (with co-corrector)” value is “+++ (≥350)” and the EC50 was less than 3 µM.
In experiment [1], `O=C(NS(=O)(=O)c1cccc2ccccc12)C1CCCc2c(OC3CCOCC3)ccc(Br)c21` (stereo not shown) [II-92] yielded a maximal response (Emax) of less than 50% and a half-maximal effective concentration (EC50) of 3 to 10 µM. Further, in experiment [2], the “Maximum % activity (with co-corrector)” value was “++ (≥150 and <350)”; the EC50 was less than 3 µM.
Turning to `CC(C)(O)COc1ccc(Br)c2c1CCCC2C(=O)NS(=O)(=O)c1cccc2ccccc12` (stereo not shown) [II-93], in experiment [1], the Emax is less than 50% and the EC50 was not below 10 µM. Further, in experiment [2], the “Maximum % activity (with co-corrector)” value was “+ (<150)” and the concentration giving a half-maximal response (EC50) is less than 3 µM.
The corresponding values for `COc1cc2c(c(OC)c1)C(C(=O)NS(=O)(=O)c1cccc3ccccc13)CCC2` (stereo not shown) [II-94] are not below 150%, 3 to 10 µM, “+++ (≥350)” and less than 3 µM.
The like results for `COc1ccc(/C=C/c2ccccc2)c2c1CCCC2C(=O)NS(=O)(=O)c1cccc2ccccc12` (stereo not shown) [II-96] were, in that order, not below 150%, less than 3 µM, “+++ (≥350)” and less than 3 µM.
Consider `COc1ccc(-c2cccc3c2OC(F)(F)O3)c2c1CCCC2C(=O)NS(=O)(=O)c1cccc2ccccc12` (stereo not shown) [II-97], for which, in experiment [1], the Emax is not below 150% and the EC50 was less than 3 µM. Moreover, in experiment [2], the “Maximum % activity (with co-corrector)” value is “+++ (≥350)” and the EC50 was less than 3 µM.
In experiment [1], `COc1ccc(-c2ccc(C)cc2F)c2c1CCCC2C(=O)NS(=O)(=O)c1cccc2ccccc12` (stereo not shown) [II-98] had an Emax not below 150% and an EC50 of less than 3 µM. In experiment [2], the “Maximum % activity (with co-corrector)” value is listed as “+++ (≥350)” and the EC50 was less than 3 µM.
Take `COc1ccc(-c2ccccc2Oc2ccccc2)c2c1CCCC2C(=O)NS(=O)(=O)c1cccc2ccccc12` (stereo not shown) [II-99]: in experiment [1], the Emax was not below 150% and the EC50 was less than 3 µM. In experiment [2], the “Maximum % activity (with co-corrector)” value was “+++ (≥350)” and the EC50 is less than 3 µM.
As for `CCC1(C(=O)NS(=O)(=O)c2cccc(Br)c2C)CCc2c(Cl)cccc21` (stereo not shown) [II-100], in experiment [1], the Emax was 50 to 150% and the EC50 is 3 to 10 µM. For the same compound, in experiment [2], the “Maximum % activity (with co-corrector)” value was “+++ (≥350)” and the EC50 was 3 to 10 µM.
